The values that follow are results of earlier work, collected in patent US20250108152A1, “DRUG ELUTING POLYMER COMPOSED OF BIODEGRADABLE POLYMERS APPLIED TO SURFACE OF MEDICAL DEVICE” (The General Hospital Corporation, priority 2016, published 2025).

As for `Cc1nnc(SCC2=C(C(=O)O)N3C(=O)[C@@H](NC(=O)Cn4cnnn4)[C@H]3SC2)s1` [cefazolin], the “fraction of intravenous dose that penetrates bone” value (shortened to “fraction”) is reported as 7-15%.
Regarding `CO/N=C(\C(=O)N[C@@H]1C(=O)N2C(C(=O)O)=C(CSc3nc(=O)c(=O)[nH]n3C)CS[C@H]12)c1csc(N)n1` [ceftriaxone], the “fraction” value is reported as 5-19%.
For `CN[C@H](CC(C)C)C(=O)N[C@H]1C(=O)N[C@@H](CC(N)=O)C(=O)N[C@H]2C(=O)N[C@H]3C(=O)N[C@H](C(=O)N[C@H](C(=O)O)c4cc(O)cc(O)c4-c4cc3ccc4O)[C@H](O)c3ccc(c(Cl)c3)Oc3cc2cc(c3O[C@@H]2O[C@H](CO)[C@@H](O)[C@H](O)[C@H]2O[C@H]2C[C@](C)(N)[C@H](O)[C@H](C)O2)Oc2ccc(cc2Cl)[C@H]1O` [vancomycin], the “fraction” value is on record as 5-20%.
